Some test systems named below: SF-295 CNS; BT-549 breast; SN12C renal; MALME-3M melanoma; HCT-15 colon; MDA-MB-435; A498 renal; SR leukemia; SW-620 colon; UACC-257 melanoma.
Assay in all cases: DTP human tumour cell line panel, 48 h

SMILES strings stand for the structures.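 Step 1: Grow cells in 96-well plates. Step 2: Expose to compound for 48 hours at 5 concentrations. Step 3: Interpolate endpoints linearly; if unreached, use highest concentration. GI50 marks 50% less growth. TGI is the concentration that stops growth completely.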

As usually defined, the GI50 is the concentration at which growth is held to half of that of the control. By TGI is commonly meant the concentration at which net growth stops. A higher TGI goes with less potent growth arrest.

For `Oc1ccc2ccccc2c1N=Nc1nccs1`, the GI50 in the assay on SF-295 CNS is 3.93 µM; in the assay with BT-549 breast, 4.75 µM; with SN12C renal, 1770 nM; with MALME-3M melanoma it was 2410 nM; in the assay on HCT-15 colon, 320 nM; in the assay with MDA-MB-435, 3030 nM. In addition, the GI50 with A498 renal was 10.5 µM; in the assay on SR leukemia it was 111 nM; in the assay on SW-620 colon, 396 nM; in the assay on UACC-257 melanoma, 3.1 µM. Moreover, the TGI is over 57.4 µM in the assay with SF-295 CNS; 32.3 µM with BT-549 breast; 44 µM in the assay with SN12C renal; 15.4 µM with MALME-3M melanoma; 19.6 µM in the assay on HCT-15 colon; 27.9 µM in the assay on MDA-MB-435. For the same molecule, the TGI with A498 renal is over 96.7 µM; with SW-620 colon, 19.5 µM; in the assay on UACC-257 melanoma it was 16.4 µM.

Consider `O=C(/C(Br)=C/c1ccccc1)c1ccccc1`, for which the GI50 is 11.8 µM with SF-295 CNS; 2.08 µM in the assay on BT-549 breast; 2340 nM in the assay with SN12C renal; 1750 nM in the assay with MALME-3M melanoma; 1020 nM in the assay with HCT-15 colon; 1960 nM with MDA-MB-435. Also, the GI50 in the assay with A498 renal was 15.5 µM; in the assay on SR leukemia it was 1410 nM; in the assay on SW-620 colon, 1630 nM; in the assay with UACC-257 melanoma, 1.86 µM. Moreover, the TGI with SF-295 CNS stood at 25.9 µM; with BT-549 breast, 4.6 µM; in the assay with SN12C renal, 5.85 µM; with MALME-3M melanoma, 3.9 µM; in the assay on HCT-15 colon it was 2.47 µM; with MDA-MB-435 it was 4.67 µM. The TGI came to 30 µM with A498 renal, 8740 nM in the assay on SR leukemia, 3.9 µM with SW-620 colon and 4.49 µM in the assay on UACC-257 melanoma.

Consider `C=C1C(=O)O[C@H]2[C@H]1CC/C(Cn1cc(-c3ccc(OC)cc3)nn1)=C\CC[C@@]1(C)O[C@@H]21`, for which the GI50 was 11 µM in the assay with SF-295 CNS; 1.31 µM in the assay with BT-549 breast; 1960 nM with SN12C renal; 1670 nM with MALME-3M melanoma; 338 nM with HCT-15 colon; 1140 nM in the assay with MDA-MB-435. In addition, the GI50 is 2.35 µM in the assay on A498 renal, 257 nM in the assay with SR leukemia, 498 nM in the assay on SW-620 colon and 1.78 µM in the assay on UACC-257 melanoma. Besides, the TGI with SF-295 CNS stood at 23.7 µM; with BT-549 breast, 2.89 µM; with SN12C renal, 5.27 µM; in the assay on MALME-3M melanoma, 3.4 µM; in the assay on HCT-15 colon it was 1.38 µM; in the assay with MDA-MB-435, 3.24 µM. The TGI in the assay on A498 renal stood at 11.3 µM; with SR leukemia, 1480 nM; in the assay with SW-620 colon it was 1.74 µM; in the assay on UACC-257 melanoma, 3.85 µM.

Regarding `Cc1ccc(NC(=O)c2cccc(N(C)C)c2)cc1NC(=O)c1ccc(O)cc1`, the GI50 in the assay on SF-295 CNS is 37.6 µM; in the assay with BT-549 breast, over 64 µM; in the assay with SN12C renal, 55000 nM; in the assay on MALME-3M melanoma it was over 75900 nM; in the assay on HCT-15 colon, 53300 nM; in the assay on MDA-MB-435 it was 52300 nM. Besides, the GI50 was over 83.6 µM in the assay with A498 renal, 31500 nM with SR leukemia, over 75500 nM in the assay with SW-620 colon and over 68.2 µM in the assay with UACC-257 melanoma. Moreover, the TGI with SF-295 CNS, in the assay on BT-549 breast, in the assay on SN12C renal, in the assay with MALME-3M melanoma, in the assay with HCT-15 colon and with MDA-MB-435 was over 100 µM in each case. The TGI with A498 renal is over 100 µM; in the assay on SR leukemia it was over 100000 nM; in the assay on SW-620 colon, over 100 µM; in the assay with UACC-257 melanoma it was over 100 µM.

For `CC1(C)OC2[C@@H](CNC(=O)NC(=O)NC(=O)CI)O[C@@H](n3cnc4c(NC(=O)Nc5ccccc5)ncnc43)[C@H]2O1` (stereo partly drawn), the GI50 with SF-295 CNS was 9.18 µM; with BT-549 breast it was 7.83 µM; in the assay with SN12C renal it was 10300 nM; with MALME-3M melanoma it was 1120 nM; with HCT-15 colon, 4840 nM; in the assay with MDA-MB-435 it was 7570 nM. In addition, the GI50 with A498 renal is 18 µM; with SR leukemia, 954 nM; in the assay with SW-620 colon, 2080 nM; in the assay with UACC-257 melanoma, 9.91 µM. Moreover, the TGI in the assay with SF-295 CNS stood at 19.4 µM; with BT-549 breast it was 14.7 µM; with SN12C renal it was 28.6 µM; in the assay on MALME-3M melanoma it was 2.9 µM; in the assay with HCT-15 colon it was 11.9 µM; in the assay on MDA-MB-435, 14.8 µM. Besides, the TGI with A498 renal was over 50 µM; in the assay with SR leukemia, 2300 nM; with SW-620 colon, 8.13 µM; in the assay with UACC-257 melanoma it was 17.8 µM.

As for `CC[C@]1(O)C[C@@H]2CN(CCc3c([nH]c4ccccc34)[C@@](C(=O)OC)(c3cc4c(cc3OC)N(C)[C@H]3[C@@](O)(C(=O)OC)[C@H](OC(C)=O)[C@]5(CC)C=CCN6CC[C@]43[C@@H]65)C2)C1`, the GI50 with SF-295 CNS is under 0.01 µM; in the assay on BT-549 breast, under 0.01 µM; in the assay on SN12C renal, under 10 nM; in the assay on MALME-3M melanoma it was under 10 nM; in the assay with HCT-15 colon, under 11.6 nM; with MDA-MB-435, under 10 nM. For the same molecule, the GI50 in the assay with A498 renal was under 0.01 µM; in the assay on SR leukemia, under 10 nM; in the assay on SW-620 colon, under 10 nM; with UACC-257 melanoma, 14.6 µM. The TGI was 0.991 µM with SF-295 CNS; 8.4 µM with BT-549 breast; 35.7 µM in the assay on SN12C renal; 14.1 µM in the assay on MALME-3M melanoma; 14.6 µM in the assay with HCT-15 colon; under 0.01 µM in the assay on MDA-MB-435. The TGI with A498 renal is under 0.01 µM; in the assay with SR leukemia, 19600 nM; with SW-620 colon it was over 100 µM; in the assay on UACC-257 melanoma it was 37.8 µM.

As for `COc1cc(C2=C(c3ccccc3)COC2=O)cc(OC)c1OC`, the GI50 in the assay with SF-295 CNS is 0.324 µM; with BT-549 breast, 33.9 µM; in the assay with SN12C renal, 5960 nM; with MALME-3M melanoma, 439 nM; in the assay with HCT-15 colon it was 2960 nM; with MDA-MB-435 it was 168 nM. Further, the results for the GI50 in the assay with A498 renal, with SW-620 colon and in the assay on UACC-257 melanoma were 6.87 µM, 1680 nM and over 25 µM, respectively. Also, the TGI with SF-295 CNS is 2.9 µM; in the assay on BT-549 breast, over 100 µM; with SN12C renal, over 100 µM; in the assay with MALME-3M melanoma, over 100 µM; in the assay with HCT-15 colon, over 100 µM; in the assay on MDA-MB-435, 0.645 µM. Besides, the TGI in the assay with A498 renal was over 66.1 µM; in the assay with SR leukemia, 295 nM; with SW-620 colon it was over 100 µM; in the assay with UACC-257 melanoma, over 94.8 µM.

The record behind these values is PubChem BioAssay (NCI).
